Reference: patent US12262710B2, “Fungicidal compounds” (SYNGENTA CROP PROTECTION AG, priority 2019, dated 2025)

Key:
[1] = test system: Monographella nivalis; experiment: Monographella nivalis syn. Microdochium nivale (snow mould, foot rot of cereals), liquid culture growth inhibition; format: cell-based; conditions: nutrient broth (PDB), 72 hrs, photometric at 620 nm, compared to untreated control
Procedure, shortened: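 Cryostored conidia suspended in potato dextrose broth and added to test compounds in DMSO. Growth inhibition read photometrically at 620 nm after 72 h incubation at 24 °C.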

[2] = test system: Plasmopara viticola; experiment: Plasmopara viticola (downy mildew of grapevine), grape vine leaf disks, preventive; format: in vivo; conditions: foliar, 168 h, 7 dpi, compared to untreated control
Method: Grape vine leaf disks are placed on agar in multiwell plates (24-well format) and sprayed with test solutions. After drying, the leaf disks are inoculated with a spore suspension of the fungus. After appropriate incubation the activity of a compound is assessed 7 dpi (days after inoculation) as preventive fungicidal activity.

[3] = test system: Phakopsora pachyrhizi; experiment: Example E: comparative activity against Phakopsora pachyrhizi (soybean rust), soybean leaf disks sprayed; format: in vivo; conditions: 0.025% Tween20, approx. 12 dpi
Method: Method: Compounds to be tested are prepared as DMSO solutions which are diluted to the appropriate concentration with 0.025% Tween20 just before spraying. Soybean leaf disks are placed on agar in multiwell plates (24-well format) and sprayed with test solutions. After drying, the leaf disks are inoculated with a spore suspension of the fungus. After appropriate incubation the activity of a compound is assessed approx. 12 dpi (days after inoculation) as preventive fungicidal activity. The data are presented as the percentage of disease control of each compound for the biological tests and testing rates described below in Table J.

[4] = test system: Phakopsora pachyrhizi; experiment: Phakopsora pachyrhizi (soybean rust), soybean leaf disks, preventive; format: in vivo; conditions: foliar, 288 h, approx. 12 dpi, compared to untreated control
Method: Soybean leaf disks are placed on agar in multiwell plates (24-well format) and sprayed with test solutions. After drying, the leaf disks are inoculated with a spore suspension of the fungus. After appropriate incubation the activity of a compound is assessed approx. 12 dpi (days after inoculation) as preventive fungicidal activity.

[5] = test system: Alternaria solani; experiment: Alternaria solani (early blight of tomatoes), tomato leaf disks; format: in vivo; conditions: foliar, inoculated 2 days after application, compared to untreated control
Method: Alternaria solani (Early Blight of Tomatoes) Tomato leaf disks are placed on agar in multiwell plates (24-well format) and sprayed with the formulated test compound diluted in water. The leaf disks are inoculated with a spore suspension of the fungus 2 days after application. The inoculated leaf disks are incubated at 23° C./21° C.

[6] = test system: Mycosphaerella arachidis; experiment: Mycosphaerella arachidis syn. Cercospora arachidicola (brown leaf spot of peanut), liquid culture growth inhibition; format: cell-based; conditions: nutrient broth (PDB), approximately 5-6 days, photometric at 620 nm, compared to untreated control
Method: Conidia of the fungus from cryogenic storage were directly mixed into nutrient broth (PDB potato dextrose broth). A DMSO solution of the test compounds was placed into a microtiter plate (96-well format) and the nutrient broth containing the fungal spores was added to it. The test plates were incubated at 24° C. and the inhibition of growth was determined photometrically after approximately 5-6 […] at 620 nm.

[7] = test system: Puccinia recondita f. sp. tritici; experiment: Puccinia recondita (brown rust), preventative, wheat leaf segments; format: in vivo; conditions: foliar, 192 h, 8 dpi, compared to untreated control
Method: Wheat leaf segments are placed on agar in multiwell plates (24-well format) and sprayed with test solutions. After drying, the leaf segments are inoculated with a spore suspension of the fungus. After appropriate incubation the activity of a compound is assessed 8 dpi (days after inoculation) as preventative fungicidal activity.

[8] = test system: Phakopsora pachyrhizi; experiment: Example D: comparative activity against Phakopsora pachyrhizi (soybean rust), soybean plants sprayed, leaf disks cut from treated plants; format: in vivo; conditions: 0.1% OCHIMA, leaf disks cut one day after application, approx. 12 dpi
Method: Method: Soybean plants are sprayed in a spray chamber with formulated DMSO compound solutions which are diluted to the appropriate concentration with 0.1% […] (adjuvant comprising polyethoxylated sorbitol hexaoleate and tris(2-ethylhexyl) phosphate) just before spraying. Leaf disks are cut from treated plants and placed on agar into 24-well plates one day after application. After, the leaf disks are inoculated with a spore suspension of the fungus. After appropriate incubation the activity of a compound is assessed approx. 12 dpi (days after inoculation) as preventive fungicidal activity. The data are presented as the percentage of disease control of each compound for the biological tests and testing rates described below in Table 1.

[9] = test system: Phytophthora infestans; experiment: whole plant or invertebrate; format: in vivo; conditions: in Solanum lycopersicum, foliar, 96 h, read-out: control of Phytophthora infestans
[10] = test system: Pyricularia oryzae; experiment: whole plant or invertebrate; format: in vivo; conditions: foliar, 120 h, read-out: control of Pyricularia oryzae
[11] = test system: Glomerella lagenarium; experiment: Glomerella lagenarium syn. Colletotrichum lagenarium (anthracnose of cucurbits), liquid culture growth inhibition; format: cell-based; conditions: Colletotrichum orbiculare, nutrient broth (PDB), 72 hrs, photometric at 620 nm, compared to untreated control
Procedure, shortened: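 Conidia mixed into potato dextrose broth and added to compound in DMSO in 96-well format. Incubated at 24 °C; growth inhibition measured photometrically at 620 nm after 72 hrs.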

[12] = test system: Puccinia recondita; experiment: Example C: comparative activity against Puccinia recondita (brown rust), curative, wheat leaf segments; format: in vivo; conditions: 8 dpi
Method: Method; Wheat leaf segments are placed on agar in multiwell plates (24-well format). The leaf segments are inoculated with a spore suspension of the fungus and sprayed with test solutions 1 day after inoculation. After appropriate incubation the activity of a compound is assessed 8 dpi (days after inoculation) as curative fungicidal activity. The data are presented as the percentage of disease control of each compound for the biological tests and testing rates described below in table H.

[13] = test system: Puccinia recondita f. sp. tritici; experiment: Puccinia recondita (brown rust), curative, wheat leaf segments; format: in vivo; conditions: foliar, 192 h, sprayed 1 day after inoculation, 8 dpi, compared to untreated control
Method: Wheat leaf segments are placed on agar in multiwell plates (24-well format). The leaf segments are inoculated with a spore suspension of the fungus and sprayed with test solutions 1 day after inoculation. After appropriate incubation the activity of a compound is assessed 8 dpi (days after inoculation) as curative fungicidal activity.

[14] = test system: Erysiphe graminis f. sp. tritici; experiment: Erysiphe graminis f. sp. tritici (wheat powdery mildew), wheat leaf segments, preventive; format: in vivo; conditions: Blumeria graminis, foliar, 168 h, 7 dpi, compared to untreated control
Method: Wheat leaf segments are placed on agar in multiwell plates (24-well format) and sprayed with test solutions. After drying, the leaf disks are inoculated with spores of the fungus. After appropriate incubation the activity of a compound is assessed 7 dpi (days post inoculation) as preventive fungicidal activity.

`CO/C=C(\Oc1cc(C2CCCCC2)ccc1C)C(=O)OC` [E.15, methyl (Z)-2-(5-cyclohexyl-2-methyl-phenoxy)-3-methoxy-prop-2-enoate] was tested, and the inhibition of growth at 20 ppm [1] was no less than 80%, the pest or weed control at 200 ppm [2] was no less than 80% and the “control (%) Phakopsora pachyrhizi (Soybean rust)” value (shortened to “control (%) Phakopsora pachyrhizi”) ([3]; 0.6 ppm) was 10%. The “control (%) Phakopsora pachyrhizi” value ([3]; 2 ppm) was 70%, the “control (%) Phakopsora pachyrhizi” value ([3]; 6 ppm) was 95% and the “control (%) Phakopsora pachyrhizi” value ([3]; 20 ppm) was 100%. For the same compound, the “control (%) Phakopsora pachyrhizi” value ([3]; 60 ppm) was 100%, the “control (%) Phakopsora pachyrhizi” value ([3]; 200 ppm) was 100% and the pest or weed control at 60 ppm [4] was no less than 70%. It also gave a pest or weed control at 200 ppm [5] of no less than 80%, an inhibition of growth at 20 ppm [6] of no less than 80% and a pest or weed control at 200 ppm [7] of no less than 80%. For the same compound, the “control (%) Phakopsora pachyrhizi” value ([8]; 6 ppm) was 0%, the “control (%) Phakopsora pachyrhizi” value ([8]; 20 ppm) was 51% and the “control (%) Phakopsora pachyrhizi” value ([8]; 60 ppm) was 97%. The “control (%) Phakopsora pachyrhizi” value ([8]; 200 ppm) was 99%, the pest or weed control at 200 ppm [9] was no less than 80% and the pest or weed control at 200 ppm [10] was no less than 80%. The inhibition of growth at 20 ppm [11] was no less than 80%, the “control (%) Puccinia recondita (Brown rust), curative” value (“control (%) Puccinia recondita” for short) ([12]; 20 ppm) was 90% and the “control (%) Puccinia recondita” value ([12]; 60 ppm) was 100%. For the same compound, the “control (%) Puccinia recondita” value ([12]; 200 ppm) was 100%, the pest or weed control at 200 ppm [13] was no less than 80% and the pest or weed control at 200 ppm [14] was no less than 80%.
